# Data taken from patent US20250003959A1, “CELL ANALYSIS METHODS, COMPOSITIONS, AND USES” (Institute for Systems Biology, priority 2021, published 2025).
# Key:
# [1] = tested on: U87VIII single cells; experiment: Single-cell barcode chip (SCBC) FA-N3 uptake measurement; type: cell-based, human
# Method: For SCBC measurements, the as-prepared single cells were resuspended in warm FBS-free media supplemented with 10 mM FA-N3 at 2 M cells/mL. After being incubated at 37° C. for 30 min and washed with FBS-free media 3 times, the collected cell pellet was resuspended in serum-free, biotin-free media. The concentration of the as-prepared single-cell suspension was 2 M cells/mL.
# The SCBCs were fabricated according to well-established procedures (Xue et al (2015) J Am Chem Soc 137 (12): 4066-4069). DNA-encoded antibody library (DEAL) was grafted onto the surface through DNA hybridization to enable capture antibody arrays. The FA surface probe was also incorporated onto the surface barcode through the same procedure.
# The SCBC devices were operated following previously established protocols (Xue et al (2015) J Am Chem Soc 137 (12): 4066-4069)). Briefly, FA-N3 detection was achieved by a surface-based competitive FRET assay, and protein detection was carried out by a sandwich immunofluorescence assay. The cells were loaded in the SCBC with FA-N3 first. Then each cell was isolated and lysed on each chamber. Upon cell lysing, FA-N3 and other analytes were released from the cell and captured on the surface. Subsequently, the detection cocktail containing BHQ2-N3 and antibodies were added to the chamber, and the fluorescence readout was recorded.
# The dendrimer-ssDNA conjugate can be mixed with a cocktail of antibody-ssDNA conjugates to enable multiplex quantitation. As a proof of concept, we quantified the azidopentanoic acid uptake, critical signaling protein levels, and cell proliferation marker (Ki67) in U87VIII single cells. […] We further investigated if the FA-N3 uptake was dictated by the cell volume.
# [2] = tested on: U87VIII cells
# Method: (§1) A 96-well plate was seeded with U87 cells (10,000/well), and the cells were allowed to grow overnight. Then the FA-N3 solution was added (100 μL per well, various concentrations) to the cells and incubated for 24 hours. After the incubation, the cell media was removed, and a resazurin solution (10 g/mL, in cell media) was added to the plate and incubated for 2 hours. The fluorescence was read by a plate reader (Biotek, 540 nm excitation/590 nm emission).
# [3] = tested on: U87VIII cells; experiment: FA-N3 tolerance experiment (resazurin viability); details: FIG. 3E
# Method: as §1
# [4] = tested on: U87VIII cells; experiment: FA-N3 uptake experiment at the bulk level, dendrimer/BHQ2-N3 surface detection; type: cell-based, human
# Method: The 3rd or 4th generation dendrimer was immobilized on the glass slide surface (described above). To generate a working curve of FA-N3, 45 μL of FA-N3 (various concentrations in 1×PBST) was added to each well. The slide was incubated at 37° C. for 2 hours, allowing FA-N3 to react with the DBCO groups on the dendrimer. The FA-N3 solution was then removed, and each well was washed with 1×PBST three times. 45 μL of BHQ2-N3 solution (25 μM in 1×PBST) was added to each well, and the slide/PDMS device was incubated at 37° C. for 1 hour, allowing BHQ2-N3 to react with unoccupied DBCO sites. After removing the BHQ2-N3 solution, and the device was washed with 1×PBST three times. The PDMS slab was then removed, and the slide was washed with 1×PBS, 50% 1×PBS/water, and water. The slide was then air-dried, and the fluorescence intensities were obtained using a Genepix microarray scanner. Experiments were run in quadruplets to get the error bar.
# The U87 cells were collected via centrifugation at 500 g for 5 min. The media was removed, and the cells were resuspended in FBS-free DMEM, resulting in a 4 M cells/mL suspension. 250 μL of the cell suspension was dispensed into Eppendorf tubes, and mixed with 250 μL of the FA-N3 solution (various concentrations, in FBS free DMEM). After 30 min incubation in the cell incubator, the cells were centrifuged at 500 g for 5 min and the resulting pellet was washed 3 times to remove any excess FA-N3. Then, 100 μL cell lysis buffer was added to each tube, and kept on ice for 15 min. The tubes were then sonicated and vortexed for 5 min. Finally, the tubes were centrifuged at maximum speed for 10 min. The supernatant was collected and subjected to surface-based FA-N3 detection.
# Because of their hydrophobic tails, fatty acids may insert into the cell membrane. This partition is not an active transportation process and may confound the analysis. On the other hand, it was expected that the inserted probe molecules would remain in the membrane fragments upon cell lysis and not be detected by the assay. To assess this potential interference, we incubated the cells with the FA-N3 probe at 4° C. and used our platform to quantify the FA-N3 in the cells. At such a low temperature, the cells would stop the active transportation of the probe, and any observed signal would originate from the nonspecific insertion into the cell membrane. […] To rule out the possibility that the low-temperature treatment dampened the rate of the nonspecific insertion, we performed another experiment where we fixed the cells and then incubated them with the FA-N3 probe at 37° C. Again, the resulted signal was negligible (FIG. 3G).
substance,measurement,setting,value
azidopentanoic acid [FA-N3],intracellular FA-N3 concentration,[1],high μM to low mM
same,fatty acid concentrations in the chambers,[1]; calculated from the standard curve,high nM to low μM
same,FA-N3 amount taken up by each cell,[1]; chamber volume 2 nL,low fmol-level
same,tolerance of the probe by the cells,[2],well-tolerated
same,concentration well tolerated by cells,[3],up to 20 mM
same,uptake signal after incubation at 4° C.,"[4]; U87VIII cells incubated with the probe at 4° C., vs control",indistinguishable from the control
same,FA-N3 concentration above which uptake signal leveled off,"[4]; U87VIII cells, bulk level",above 10 mM
same,cellular uptake of FA-N3 probe,"[4]; U87VIII cells, bulk level, 30 min incubation, varying FA-N3 concentrations",concentration-dependent manner
same,uptake signal in fixed cells,[4]; fixed U87VIII cells incubated with the probe at 37° C.,negligible
